Data: patent US11542266B1, “Substituted piperidines as BTK inhibitors” (HAISCO PHARMACEUTICALS PTE. LTD., priority 2019, dated 2023)

Legend:
Mino cells = test: Inhibition of cell proliferation, Mino cells (Cell Viability Assay, 72 h); assay type: cell-based, human; conditions: Homo sapiens
Summary of the method: (§1)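 RPMI1640 + 10% FBS cultures seeded at 20000/well (SU-DHL-4) or 5000/well (Mino, SU-DHL-6), exposed to compound dilutions in triplicate for 72 h at 37 °C, 5% CO2, DMSO vehicle control. Viability read by luminescent reagent; IC50 from dose-response and Max inhi. % = (1 − T72 treated/T72 vehicle)×100 at top concentration.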

SU-DHL-6 cells = test: Inhibition of cell proliferation, SU-DHL-6 cells (Cell Viability Assay, 72 h); assay type: cell-based; conditions: Homo sapiens
Description: SU-DHL-4, Mino, and SU-DHL-6 cells, in the culture medium of RPMI1640+10% FBS, were cultured in an incubator at 37° C. under 5% CO2. Cells were plated in a 96-well plate. Specifically, SU-DHL-4 cells were at 20000/well, Mino and SU-DHL-6 cells were at 5000/well, with 90 μL/well. 10 μL of the compounds at different concentrations were added to each well. There were 3 replicate wells for each concentration, and the last column, added with DMSO, was used as a vehicle control group. The cultures were continued for 72 hours at 37° C. under 5% CO2. After 72 hours, 100 μL of detection reagent (Cell Viability Assay, Promega, G7573) was added to each well, and the cultures were uniformly mixed for 2 minutes, and incubated at room temperature for 10 minutes. The fluorescence signal value was measured with a microplate reader (PHERAstar FSX). The IC50 value of the compound on cell proliferation inhibition was calculated using Origin 9.2 software, and the inhibition rate at the highest concentration of the compound (Max inhi. %) was calculated according to formula (1). Max inhi. %=(1-T72 administration/T72 vehicle)×100 Formula (1).

SU-DHL-4 cells = test: Inhibition of cell proliferation, SU-DHL-4 cells (Cell Viability Assay, 72 h); assay type: cell-based, human; conditions: Homo sapiens
Summary of the method: as §1

OCI-LY10 cells = test: Inhibition of cell proliferation, OCI-LY10 cells (Cell Viability Assay, 72 h); assay type: cell-based; conditions: Homo sapiens
Description: (§2) OCI-LY10 and TMD-8 cells, in the culture medium of RPMI1640+10% FBS, were cultured in an incubator at 37° C. under 5% CO2. Cells were plated in a 96-well plate. Specifically, OCI-LY10 cells were at 10000/well, and TMD-8 cells were at 8000/well, with 90 μL/well. These cells were cultured at 37° C. under 5% CO2 overnight. On the next day, 10 μL of the compounds at different concentrations were added to each well. There were 3 replicate wells for each concentration, and the last column, added with DMSO, was used as a vehicle control group. The cultures were continued for 72 hours at 37° C. under 5% CO2. After 72 hours, 50 μL of detection reagent (Cell Viability Assay, Promega, G7573) was added to each well, and the cultures were uniformly mixed for 2 minutes, and incubated at room temperature for 10 minutes. The fluorescence signal value was measured with an Envision2104 plate reader (PerkinElmer). The inhibition rate was calculated using formula (2), wherein RLUcompound was the readout of the drug treated group, RLUcontrol was the average value of the vehicle control group, and RLUblank was the average value of the cell-free wells. The IC50 value was calculated using GraphPad Prism software. IR (%)=(1−(RLUcompound-RLUblank)/(RLUcontrol-RLUblank))*100% formula (2)

TMD-8 cells = test: Inhibition of cell proliferation, TMD-8 cells (Cell Viability Assay, 72 h); assay type: cell-based; conditions: Homo sapiens, TMD8
Description: as §2

BTK protein = BTK protein (Mus musculus (Mouse), UniProt P35991); test: Detection of BTK protein degradation in spleen of mice; assay type: in vivo; conditions: po, 72 h, female ICR mice, 3 consecutive days of intragastric administration, read-out: DD50 value of compounds on BTK protein degradation in spleen of mice
Description: Female ICR mice, 6-8 weeks old, were purchased from BEIJING VITAL RIVER LABORATORY ANIMAL TECHNOLOGY CO., LTD, and the experiment was started after 3 days of adaptation. After 3 consecutive days of intragastric administration of different doses of the compound, the spleen of mice was taken, the spleen cells were collected, and RIPA lysis buffer (Beyotime, Cat. P0013B) was added. The cells were lysed on ice for 15 minutes, and centrifuged at 12000 rpm at 4° C. for 10 minutes. The protein sample of the supernatant was collected, and the protein was quantified by using the BCA kit (Beyotime, Cat. P0009), and then the protein was diluted to 0.25 mg/mL. The expressions of BTK (CST, Cat. 8547S) and the internal reference β-actin (CST, Cat. 3700S) were detected using a fully automated western blot quantitative analyzer (Proteinsimple). The expression level of BTK relative to the internal reference was calculated using Compass software, and the DD50 value was calculated using Origen9.2 software according to formula (4). Specifically, the BTKadministration denoted the expression level of BTK in administration groups at different doses, and the BTKvehicle denoted the expression level of BTK in the vehicle control group. BTK %=BTKadministration/BTKvehicle×100 formula (4)

[1] = Pharmacokinetic experiment in mice; assay type: in vivo; conditions: mouse, plasma, male ICR mice
Description: (§3) Objective: In this experiment, a single dose of each test compound was administered to ICR mice intravenously and intragastrically, the concentrations of the test compound in plasma of mice were measured, and the pharmacokinetic characteristics and bioavailability of the test compound in mice were evaluated.
Experimental animals: Male ICR mice, 20-25 g, 6-8 weeks old, 24 mice/compound. The experimental animals were purchased from CHENGDU DOSSY EXPERIMENTAL ANIMALS CO., LTD.
Experimental method: On the day of the experiment, 24 ICR mice were randomly grouped according to their body weight. The animals were fasted with water available for 12 to 14 hours one day before the administration of a test compound, and were fed 4 hours after the administration.
Sampling: Before and after the administration, 0.06 ml of blood was taken from the orbit of the mice under isoflurane anesthesia, and placed in an EDTAK2 centrifuge tube. Centrifugation was carried out at 5000 rpm at 4° C. for 10 min and the plasma was collected.
Time points for plasma collection in G1 group: 0, 5 min, 15 min, 30 min, 1 h, 2 h, 4 h, 6 h, 8 h, and 24 h;
Time points for plasma collection in G2 group: 0, 15 min, 30 min, 1 h, 2 h, 4 h, 6 h, 8 h, and 24 h;
(§4) Before analysis and detection, all samples were stored at −80° C. The samples were analyzed quantitatively by LC-MS/MS.

[2] = Pharmacokinetic experiment in rats (i.g. vehicle 0.5% MC); assay type: in vivo; conditions: Sprague-Dawley (SD), rat, plasma, po, male SD rats
Summary of the method: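 Male SD rats (200–250 g, 6–8 weeks, n=6 per compound) were dosed once i.v. or intragastrically after a 12–14 h fast and fed 4 h post-dose. Orbital blood was drawn into EDTA-K2 tubes at 0–24 h (from 5 min i.v., from 15 min oral). Plasma was quantified by LC-MS/MS for PK parameters and bioavailability.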

[3] = Pharmacokinetic experiment in rats (i.g. vehicle DMSO/Solutol/PEG-400/SBE-β-CD); assay type: in vivo; conditions: Sprague-Dawley (SD), rat, plasma, po, male SD rats; for bioavailability: i.g. 20 mg/kg (DMSO/Solutol/PEG-400/SBE-β-CD) vs i.v. 5 mg/kg; for AUC(0-t): i.g. 20 mg/kg, vehicle 5% DMSO + 5% Solutol + 30% PEG-400 + 60% (20%SBE-β-CD)
Description: as §3, with “SD rats” for “ICR mice”, “rats” for “mice”
Experimental animals: Male SD rats, 200-250 g, 6-8 weeks old, 6 rats/compound. The experimental animals were purchased from CHENGDU DOSSY EXPERIMENTAL ANIMALS CO., LTD.
Experimental method: On the day of the experiment, 6 SD rats were randomly grouped according to their body weight. The animals were fasted with water available for 12 to 14 hours one day before the administration of a test compound, and were fed 4 hours after the administration.
Sampling: Before and after the administration, 0.1 mL of blood was taken from the orbit of the rats under isoflurane anesthesia, and placed in an EDTAK2 centrifuge tube. Centrifugation was carried out at 5000 rpm at 4° C. for 10 min and the plasma was collected.
Time points for plasma collection in G1 group: 0, 5 min, 15 min, 30 min, 1 h, 2 h, 4 h, 6 h, 8 h, and 24 h.
Time points for plasma collection in G2 group: 0, 15 min, 30 min, 1 h, 2 h, 4 h, 6 h, 8 h, and 24 h.
as §4

BTK protein, sequence (P35991 whole entry): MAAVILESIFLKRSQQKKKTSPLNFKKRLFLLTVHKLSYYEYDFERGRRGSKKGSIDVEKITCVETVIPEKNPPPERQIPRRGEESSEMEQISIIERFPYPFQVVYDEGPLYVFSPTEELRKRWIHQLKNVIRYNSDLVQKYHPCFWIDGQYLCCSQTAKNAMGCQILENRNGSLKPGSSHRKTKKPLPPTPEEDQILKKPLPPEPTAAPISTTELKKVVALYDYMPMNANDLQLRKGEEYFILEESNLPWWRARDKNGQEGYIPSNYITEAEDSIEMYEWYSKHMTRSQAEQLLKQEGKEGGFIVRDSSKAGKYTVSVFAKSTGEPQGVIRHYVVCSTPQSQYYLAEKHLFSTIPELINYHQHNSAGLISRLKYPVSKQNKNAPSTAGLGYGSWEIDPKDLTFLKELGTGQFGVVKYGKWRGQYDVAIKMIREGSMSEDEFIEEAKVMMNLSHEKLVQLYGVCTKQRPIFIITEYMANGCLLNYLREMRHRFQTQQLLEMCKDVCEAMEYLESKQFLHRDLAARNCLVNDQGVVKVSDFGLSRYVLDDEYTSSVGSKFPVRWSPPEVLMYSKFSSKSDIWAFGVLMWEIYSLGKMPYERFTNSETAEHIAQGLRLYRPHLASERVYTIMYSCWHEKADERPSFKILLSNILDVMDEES

| IC50 (SU-DHL-6 cells) [nM] | IC50 (SU-DHL-4 cells) [nM] | IC50 (OCI-LY10 cells) [nM] | ED50 (BTK protein) [mg/kg] | bioavailability ([1]; oral, i.g. 10 mg/kg vs i.v. 5 mg/kg) [%] | AUC(0-t) ([1]; po, i.g. 10 mg/kg, vehicle 0.5% MC) [ng·h/mL] | bioavailability ([2]; i.g. 20 mg/kg (0.5% MC) vs i.v. 5 mg/kg) [%] | AUC(0-t) ([2]; i.g. 20 mg/kg, vehicle 0.5% MC, read-out: AUC0-t) [ng·h/mL] | bioavailability [3] [%] | AUC(0-t) [3] [ng·h/mL] | Compound | IC50 (Mino cells) [nM] | IC50 (TMD-8 cells) [nM] |
| --- | --- | --- | --- | --- | --- | --- | --- | --- | --- | --- | --- | --- |
| 744 | 367 | 5 | 3.8 | 10.8 | 2430 | 6.57 ± 0.77 | 2340 ± 274 | – | – | Nc1ncnc2c1c(-c1ccc(Oc3ccccc3)cc1)nn2C1CCN(C2CN(C3CN(c4ccc5c(c4)C(=O)N(C4CCC(=O)NC4=O)C5=O)C3)C2)CC1 (stereo not shown) [Compound 17, 5-[3-[3-[4-[4-amino-3-(4-phenoxyphenyl)pyrazolo[3,4-d]pyrimidin-1-yl]-1-piperidyl]azetidin-1-yl]azetidin-1-yl]-2-(2,6-dioxo-3-piperidyl)isoindoline-1,3-dione] | 20 | 22 |
| 54 | 74 | 3 | 2.1 | – | – | – | – | 17.4 ± 4 | 5420 ± 1260 | Nc1ncnc2c1c(-c1ccc(Oc3ccccc3)cc1)nn2[C@@H]1CCN(C2CCN(C3CN(c4ccc5c(c4)C(=O)N(C4CCC(=O)NC4=O)C5=O)C3)CC2)C[C@H]1F (stereo partly drawn) [Compound 40, 5-(3-((3R,4R)-4-(4-amino-3-(4-phenoxyphenyl)-1H-pyrazolo[3,4-d]pyrimidin-1-yl)-3-fluoro-[1,4′-bipiperidin]-1′-yl)azetidin-1-yl)-2-(2,6-dioxopiperidin-3-yl)isoindoline-1,3-dione] | 7.3 | 12 |
| 177 | 382 | 3 | 1.9 | – | – | – | – | 9.14 ± 2.5 | 1200 ± 327 | Nc1ncnc2c1c(-c1ccc(Oc3ccccc3)cc1)nn2[C@H]1CCN(C2CCN(C3CN(c4ccc5c(c4)C(=O)N(C4CCC(=O)NC4=O)C5=O)C3)CC2)C[C@H]1F (stereo partly drawn) [Compound 42, 5-(3-((3R,4S)-4-(4-amino-3-(4-phenoxyphenyl)-1H-pyrazolo[3,4-d]pyrimidin-1-yl)-3-fluoro-[1,4′-bipiperidin]-1′-yl)azetidin-1-yl)-2-(2,6-dioxopiperidin-3-yl)isoindoline-1,3-dione] | 15 | 16 |
| 125 | 110 | 3 | 1.4 | – | – | – | – | 19.7 ± 8.5 | 3440 ± 1490 | Nc1ncnc2c1c(-c1ccc(Oc3ccccc3)cc1)nn2[C@@H]1CCN(C2CCN(C3CN(c4ccc5c(c4)C(=O)N(C4CCC(=O)NC4=O)C5=O)C3)CC2)C[C@@H]1F (stereo partly drawn) [Compound 45, 5-(3-((3S,4R)-4-(4-amino-3-(4-phenoxyphenyl)-1H-pyrazolo[3,4-d]pyrimidin-1-yl)-3-fluoro-[1,4′-bipiperidin]-1′-yl)azetidin-1-yl)-2-(2,6-dioxopiperidin-3-yl)isoindoline-1,3-dione] | 9.6 | 16 |
